One data set concerns rabbits. The data set is described as follows: Hypnotic effect in rabbits (method of Janssen et al.). It counts as in vivo. The following applies: for minimal effective dose: Oryctolagus cuniculus, iv, read-out: Hmin; for Mean duration of sleep: i.v., in the case of dose Hmin. As for the experimental part: (§1) The hypnotic activity is measured by the method of Janssen et al. (J. Med. Chem. 8, 220/1965/). Ketalar/2-(2-chlorophenyl)-2-methyl-amino-cyclohexanone/ and Hexobarbital (5-methyl-5-hexenyl-barbituric acid) were applied as reference compounds.

The subject of data set [1] is mice. Kind of data set: Hypnotic effect in mice (method of Janssen et al.). The format is in vivo. The following applies: for minimal effective dose / ED50: Mus musculus, iv; for minimal effective dose: 0.05 h, read-out: Hmin (minimal hypnotic dose inducing sleep in all animals for a period exceeding 3 minutes); for minimal effective dose / Mean duration of sleep: i.v.; for ED50: read-out: HD50 (dose inducing sleep in 50 percent of the animals). As for the experimental part: as §1

The next data set has as its system rats. Kind of data set: Hypnotic effect in rats (method of Janssen et al.). The format is in vivo. The note with it: for ED50: Rattus norvegicus, iv, read-out: HD50 (the source's name); for Mean duration of sleep: i.v., in the case of dose HD50. As for the experimental part: as §1
Data set [2] in a line: Acute toxicity (LD50) in mice. The note with it: mouse, in vivo, iv.
Data set [3] concerns mice. The data set is described as follows: Acute toxicity (LD50) in mice. The note with it: mice, Tables 1 and 2.
The nature of data set [4]: Acute toxicity (LD50) in rats. The note with it: rat, in vivo, iv.
Data set [5] in a line: Acute toxicity (LD50, lethality) in rabbits. The following applies: rabbit, in vivo; for LD50: iv, LD50, rabbits.
Data set [6] can be described thus: Postnarcotic period following awakening and adverse effects. The note with it: postnarcotic period following awakening. The format is in vivo.

Entries after “also recorded” stand apart in the source; their conditions may differ.

A word on the LD50: it is the dose at which mortality reaches 50%. Read a low LD50 as greater toxicity. `Cc1cc2n(n1)C1(CCCCC1)N(C)N(C)C2=O` [Example 5, Spiro[cyclohexane-1,7'-/6,7-dihydro-2,5,6-trimethylpyrazolo[1,5-d][1,2,4]triazin-4(5H)-one/]]: the minimal effective dose with rabbits and in the data set with mice [1] was 25 mg/kg each time. In addition, the “Mean duration of sleep” value in the data set with rabbits turned out to be 6 min; with mice [1] (in the case of dose HD50) it was 2.8 min; in the data set on mice [1] (in the case of dose Hmin) it was 6.75 min; in the data set on rats, 1.5 min. Moreover, the ED50 worked out at 17.5 mg/kg in the data set on mice [1] and 16 mg/kg in the data set on rats. For the same molecule, in the data set on mice [1] (Tables 1 and 2, listed as compound of the invention), the “hypnotic effect compared with Hexobarbital and Ketalar” value is “superior to that of Hexobarbital; also recorded: in the same range as that of Ketalar”. Also, the “therapeutic index compared with reference substances” value in the data set on rats (Table 3) was “more advantageous in both instances”. Besides, the LD50 in data set [2] was 192 mg/kg; in data set [4] it was 275 mg/kg; in data set [5] it was approximately 325 mg/kg. Moreover, the “toxicity compared with reference substances” value with mice [3] is reported as “substantially lower than that of any of the above reference substances”. Further, the “adverse effects of the postnarcotic period” value in data set [6] is recorded as “devoid of any adverse effects”.
For `CN1C(=O)NC(=O)C(C)(C2=CCCCC2)C1=O` (stereo not drawn) [Hexobarbital, 5-methyl-5-hexenyl-barbituric acid], the minimal effective dose in the data set with mice [1] was 45 mg/kg. Also, the figures for the ED50 in the data set on mice [1] and in the data set with rats were 25 mg/kg and 17.5 mg/kg, respectively. In addition, the “Mean duration of sleep” value turned out to be 2.6 min with mice [1] (at a dose of 40 mg/kg), 4.1 min with mice [1] (in the case of dose HD50), 7.2 min in the data set with mice [1] (in the case of dose Hmin) and 4.45 min in the data set with rats. Also, the figures for the 50% lethal dose (LD50) in data set [2] and in data set [4] were 118 mg/kg and 125 mg/kg, respectively.
The term mortality denotes the percentage killed. Read a low mortality as a weak lethal effect. In the case of `CNC1(c2ccccc2Cl)CCCCC1=O` (stereo not drawn) [Ketalar, 2-(2-chlorophenyl)-2-methyl-amino-cyclohexanone], the minimal effective dose in the data set on rabbits and in the data set with mice [1] was 25 mg/kg each time. In addition, the “Mean duration of sleep” value turned out to be 14 min with rabbits, 1.7 min with mice [1] (in the case of dose HD50), 5.0 min with mice [1] (in the case of dose Hmin) and 1.9 min with rats. Besides, the results for the ED50 in the data set with mice [1] and in the data set with rats were 14.5 mg/kg and 8 mg/kg, respectively. In addition, the LD50 in data set [2] is 62 mg/kg; in data set [4] it was 39.4 mg/kg; in data set [5], less than 50 mg/kg. The same molecule showed a mortality in data set [5] (50 mg/kg) of 80%.

(Values after patent US4469692A, “Spiro derivatives of the pyrazolo [1,5-d] [1,2,4] triazine ring system and a process for the preparation thereof” (Alkaloida Vegyeszeti Gyar, priority 1981, dated 1984).)
